Source: the supplement of paper PMC10627819

What was measured:
Assay in all cases: fitness (endpoint OD595 vs no drug) (fraction); higher = more growth
[1] = system: S. aureus DSM 20231
In short: (§1)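 Plates with 384 wells were inoculated at OD595 0.01 using 30 µl of TSB, LB Lennox or CY, or 55 µl for S. pneumoniae. Incubation was at 37 °C, with OD595 measured every 30 min for 14 h. Fitness is the stationary-phase transition optical density over the robust mean of no-drug control wells, after first-reading background subtraction; it is capped at 1.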

[2] = system: S. aureus Newman
In short: as §1

[3] = system: S. pneumoniae D39V
In short: as §1

CO[C@@]12[C@H](COC(N)=O)C3=C(C(=O)C(C)=C(N)C3=O)N1C[C@@H]1N[C@@H]12 [Mitomycin C] + CN[C@H](CC(C)C)C(=O)N[C@H]1C(=O)N[C@@H](CC(N)=O)C(=O)N[C@H]2C(=O)N[C@H]3C(=O)N[C@H](C(=O)N[C@H](C(=O)O)c4cc(O)cc(O)c4-c4cc3ccc4O)[C@H](O)c3ccc(c(Cl)c3)Oc3cc2cc(c3O[C@@H]2O[C@H](CO)[C@@H](O)[C@H](O)[C@H]2O[C@H]2C[C@](C)(N)[C@H](O)[C@H](C)O2)Oc2ccc(cc2Cl)[C@H]1O [Vancomycin]
Settings | fitness
[1], first compound 0.0156 µg/mL, partner 0.1875 µg/mL | 0.741
[1], first compound 0.0156 µg/mL, partner 0.375 µg/mL | 0.719
[1], first compound 0.0156 µg/mL, partner 0.75 µg/mL | 0.708
[1], first compound 0.0312 µg/mL, partner 0.1875 µg/mL | 0.705
[1], first compound 0.0312 µg/mL, partner 0.375 µg/mL | 0.762
[1], first compound 0.0312 µg/mL, partner 0.75 µg/mL | 0.751
[1], first compound 0.0625 µg/mL, partner 0.1875 µg/mL | 0.592
[1], first compound 0.0625 µg/mL, partner 0.375 µg/mL | 0.624
[1], first compound 0.0625 µg/mL, partner 0.75 µg/mL | 0.624
[2], first compound 0.0156 µg/mL, partner 0.1875 µg/mL | 0.747
[2], first compound 0.0156 µg/mL, partner 0.375 µg/mL | 0.708
[2], first compound 0.0156 µg/mL, partner 0.75 µg/mL | 0.733
[2], first compound 0.0312 µg/mL, partner 0.1875 µg/mL | 0.719
[2], first compound 0.0312 µg/mL, partner 0.375 µg/mL | 0.684
[2], first compound 0.0312 µg/mL, partner 0.75 µg/mL | 0.65
[2], first compound 0.0625 µg/mL, partner 0.1875 µg/mL | 0.56
[2], first compound 0.0625 µg/mL, partner 0.375 µg/mL | 0.415
[2], first compound 0.0625 µg/mL, partner 0.75 µg/mL | 0.411
[3], first compound 0.001075 µg/mL, partner 0.125 µg/mL | 0.928
[3], first compound 0.001075 µg/mL, partner 0.25 µg/mL | 0.629
[3], first compound 0.001075 µg/mL, partner 0.5 µg/mL | 0.208
[3], first compound 0.002 µg/mL, partner 0.03125 µg/mL | 0.951
[3], first compound 0.002 µg/mL, partner 0.0625 µg/mL | 0.877
[3], first compound 0.002 µg/mL, partner 0.125 µg/mL | 0.745
[3], first compound 0.00215 µg/mL, partner 0.125 µg/mL | 0.869
[3], first compound 0.00215 µg/mL, partner 0.25 µg/mL | 0.68
[3], first compound 0.00215 µg/mL, partner 0.5 µg/mL | 0.202
[3], first compound 0.004 µg/mL, partner 0.03125 µg/mL | 0.846
[3], first compound 0.004 µg/mL, partner 0.0625 µg/mL | 0.836
[3], first compound 0.004 µg/mL, partner 0.125 µg/mL | 0.667
[3], first compound 0.0043 µg/mL, partner 0.125 µg/mL | 0.863
[3], first compound 0.0043 µg/mL, partner 0.25 µg/mL | 0.592
[3], first compound 0.0043 µg/mL, partner 0.5 µg/mL | 0.206
[3], first compound 0.008 µg/mL, partner 0.03125 µg/mL | 0.727
[3], first compound 0.008 µg/mL, partner 0.0625 µg/mL | 0.732
[3], first compound 0.008 µg/mL, partner 0.125 µg/mL | 0.629

CO[C@@]12[C@H](COC(N)=O)C3=C(C(=O)C(C)=C(N)C3=O)N1C[C@@H]1N[C@@H]12 [Mitomycin C] + COc1c(N2C[C@@H]3CCCN[C@@H]3C2)c(F)cc2c(=O)c(C(=O)O)cn(C3CC3)c12 [Moxifloxacin]
Settings | fitness
[1], first compound 0.0156 µg/mL, partner 0.0075 µg/mL | 0.677
[1], first compound 0.0156 µg/mL, partner 0.015 µg/mL | 0.675
[1], first compound 0.0156 µg/mL, partner 0.03 µg/mL | 0.543
[1], first compound 0.0312 µg/mL, partner 0.0075 µg/mL | 0.703
[1], first compound 0.0312 µg/mL, partner 0.015 µg/mL | 0.624
[1], first compound 0.0312 µg/mL, partner 0.03 µg/mL | 0.506
[1], first compound 0.0625 µg/mL, partner 0.0075 µg/mL | 0.557
[1], first compound 0.0625 µg/mL, partner 0.015 µg/mL | 0.504
[1], first compound 0.0625 µg/mL, partner 0.03 µg/mL | 0.371
[2], first compound 0.0156 µg/mL, partner 0.0075 µg/mL | 0.63
[2], first compound 0.0312 µg/mL, partner 0.0075 µg/mL | 0.59
[2], first compound 0.0312 µg/mL, partner 0.03 µg/mL | 0.0632
[2], first compound 0.0625 µg/mL, partner 0.0075 µg/mL | 0.32
[2], first compound 0.0625 µg/mL, partner 0.03 µg/mL | 0.0334
[3], first compound 0.001075 µg/mL, partner 0.0037 µg/mL | 0.878
[3], first compound 0.001075 µg/mL, partner 0.0075 µg/mL | 0.902
[3], first compound 0.001075 µg/mL, partner 0.015 µg/mL | 0.869
[3], first compound 0.002 µg/mL, partner 0.005 µg/mL | 0.895
[3], first compound 0.002 µg/mL, partner 0.01 µg/mL | 0.902
[3], first compound 0.002 µg/mL, partner 0.02 µg/mL | 0.769
[3], first compound 0.00215 µg/mL, partner 0.0037 µg/mL | 0.846
[3], first compound 0.00215 µg/mL, partner 0.0075 µg/mL | 0.805
[3], first compound 0.00215 µg/mL, partner 0.015 µg/mL | 0.813
[3], first compound 0.004 µg/mL, partner 0.005 µg/mL | 0.838
[3], first compound 0.004 µg/mL, partner 0.01 µg/mL | 0.807
[3], first compound 0.004 µg/mL, partner 0.02 µg/mL | 0.727
[3], first compound 0.0043 µg/mL, partner 0.0037 µg/mL | 0.665
[3], first compound 0.0043 µg/mL, partner 0.0075 µg/mL | 0.691
[3], first compound 0.0043 µg/mL, partner 0.015 µg/mL | 0.666
[3], first compound 0.008 µg/mL, partner 0.005 µg/mL | 0.673
[3], first compound 0.008 µg/mL, partner 0.01 µg/mL | 0.72
[3], first compound 0.008 µg/mL, partner 0.02 µg/mL | 0.637

fitness, [1], one replicate
Settings | first compound 0.0156 µg/mL | first compound 0.0312 µg/mL | first compound 0.0625 µg/mL
partner 0.06 µg/mL | 0.674 | 0.603 | 0.512
partner 0.12 µg/mL | 0.413 | 0.302 | 0.198

CO[C@@]12[C@H](COC(N)=O)C3=C(C(=O)C(C)=C(N)C3=O)N1C[C@@H]1N[C@@H]12 [Mitomycin C] + COc1ccc(C[C@H](N)C(=O)N[C@H]2[C@@H](O)[C@H](n3cnc4c(N(C)C)ncnc43)O[C@@H]2CO)cc1 [Puromycin]
fitness
Settings | first compound 0.001075 µg/mL | first compound 0.00215 µg/mL | first compound 0.0043 µg/mL | first compound 0.0156 µg/mL | first compound 0.0312 µg/mL | first compound 0.0625 µg/mL
[1], partner 0.39 µg/mL | – | – | – | 0.759 | 0.758 | 0.593
[1], partner 0.78 µg/mL | – | – | – | 0.776 | 0.78 | 0.638
[1], partner 1.56 µg/mL | – | – | – | 0.752 | 0.699 | 0.582
[2], partner 0.39 µg/mL | – | – | – | 0.79 | 0.651 | 0.552
[2], partner 0.78 µg/mL | – | – | – | 0.766 | 0.704 | 0.604
[2], partner 1.56 µg/mL | – | – | – | 0.764 | 0.662 | 0.494
[3], partner 1 µg/mL | 0.986 | 0.968 | 0.867 | – | – | –
[3], partner 2 µg/mL | 0.935 | 0.915 | 0.781 | – | – | –
[3], partner 4 µg/mL | 0.798 | 0.775 | 0.654 | – | – | –

fitness, one replicate
Settings | first compound 0.002 µg/mL | first compound 0.004 µg/mL | first compound 0.008 µg/mL | first compound 0.0156 µg/mL | first compound 0.0312 µg/mL | first compound 0.0625 µg/mL
[1], partner 3.12 µg/mL | – | – | – | 0.807 | 0.594 | 0.363
[1], partner 6.24 µg/mL | – | – | – | 0.27 | 0.219 | 0.114
[3], partner 1 µg/mL | 0.798 | 0.786 | 0.685 | – | – | –
[3], partner 2 µg/mL | 0.783 | 0.762 | 0.692 | – | – | –
[3], partner 4 µg/mL | 0.628 | 0.612 | 0.541 | – | – | –
